SMILES strings stand for the structures. Where a name gives a salt, the structure may show the parent alone. Bounds are passed on as bounds.

We go through 16 compounds from patent US8492375B2, “1-benzoyl substituted diazepine derivatives as selective histamine H3 receptor agonists” (Glaxo Group Limited, priority 2003, dated 2013).

One assay concerns the target T1, human H1 receptor (Homo sapiens, UniProt P35367).
T1 construct: expressed in transfected cells
Nature of the assay: Histamine H1 functional antagonist assay (FLIPR, histamine induced increase in fluorescence). The conditions noted are these: Chinese hamster ovary cells stably expressing the human H1 receptor; read-out: antagonism pKb, histamine H1 functional antagonist assay (converted). Format: cell-based. The procedure:
(iii) Generation of Histamine H1 Cell Line
The human H1 receptor was cloned using known procedures described in the literature [Biochem. Biophys. Res. Commun.
(III) Histamine H1 Functional Antagonist Assay
Compounds are assayed in a black walled clear bottom 384-well plate with cells seeded at 10000 cells/well. […] Each well is treated with 10 μl of a solution of FLUO4AM (10 μM in Tyrodes buffer at pH 7.40) and plates are then incubated for 60 minutes at 37° C. Wells are then washed with Tyrodes buffer using a EMBLA cell washer system, leaving 400 buffer in each well, and then treated with 100 of test compound in Tyrodes buffer. Each plate is incubated for 30 min to allow equilibration of the test compound with the receptor. Each well is then treated with 100 of histamine solution in Tyrodes buffer.
Functional antagonism is indicated by a suppression of histamine induced increase in fluorescence, as measured by the FLIPR system (Molecular Devices). By means of concentration effect curves, functional potencies are determined using standard pharmacological mathematical analysis.

The target of another assay is histamine H3 receptor (Homo sapiens, UniProt Q9Y5N1). Description: Histamine H3 functional antagonist assay ([35S]GTPγS binding, SPA, membranes of CHO K1 cells). The conditions noted are these: pKb, antagonism of 0.3 μM histamine, membranes with human H3 receptor. (GTPγS is a poorly hydrolysed GTP analogue; its binding reports G protein activation.)
Chain of histamine H3 receptor (Q9Y5N1 whole entry): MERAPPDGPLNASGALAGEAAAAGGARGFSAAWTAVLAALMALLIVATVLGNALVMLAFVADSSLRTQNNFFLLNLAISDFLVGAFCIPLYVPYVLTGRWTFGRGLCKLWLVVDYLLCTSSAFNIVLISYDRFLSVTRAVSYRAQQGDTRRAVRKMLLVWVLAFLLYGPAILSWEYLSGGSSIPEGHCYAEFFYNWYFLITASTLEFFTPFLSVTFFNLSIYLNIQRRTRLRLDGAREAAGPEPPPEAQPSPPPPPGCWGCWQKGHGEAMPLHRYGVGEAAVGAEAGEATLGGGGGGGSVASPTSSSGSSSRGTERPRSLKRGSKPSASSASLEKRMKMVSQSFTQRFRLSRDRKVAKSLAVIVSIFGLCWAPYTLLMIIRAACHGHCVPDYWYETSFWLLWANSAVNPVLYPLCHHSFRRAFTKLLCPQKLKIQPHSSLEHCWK

T1 sequence (P35367 whole entry): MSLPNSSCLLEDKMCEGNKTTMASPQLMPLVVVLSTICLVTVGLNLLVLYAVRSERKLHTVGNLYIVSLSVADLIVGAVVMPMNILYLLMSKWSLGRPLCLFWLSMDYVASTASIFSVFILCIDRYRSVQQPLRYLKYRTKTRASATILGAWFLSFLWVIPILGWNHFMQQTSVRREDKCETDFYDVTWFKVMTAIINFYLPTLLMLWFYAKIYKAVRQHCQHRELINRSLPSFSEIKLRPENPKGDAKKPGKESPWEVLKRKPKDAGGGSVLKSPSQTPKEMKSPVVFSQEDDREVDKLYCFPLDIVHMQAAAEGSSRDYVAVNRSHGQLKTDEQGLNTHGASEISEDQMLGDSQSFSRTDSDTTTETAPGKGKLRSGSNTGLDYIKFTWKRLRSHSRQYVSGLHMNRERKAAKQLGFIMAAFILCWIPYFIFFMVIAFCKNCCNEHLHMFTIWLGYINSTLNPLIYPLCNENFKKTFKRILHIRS
Procedure for histamine H3 receptor: Ligated DNA was transformed into competent DH5α E. coli host bacterial cells and plated onto Luria Broth (LB) agar containing Zeocin™ (an antibiotic which allows the selection of cells expressing the sh ble gene which is present on pGene and pSwitch) at 50 μg ml^−1. Colonies containing the re-ligated plasmid were identified by restriction analysis. DNA for transfection into mammalian cells was prepared from 250 ml cultures of the host bacterium containing the pGeneH3 plasmid and isolated using a DNA preparation kit (Qiagen Midi-Prep) as per manufacturers guidelines (Qiagen).
CHO K1 cells previously transfected with the pSwitch regulatory plasmid (InVitrogen) were seeded at 2×10e6 cells per T75 flask in Complete Medium, containing Hams F12 (GIBCOBRL, Life Technologies) medium supplemented with 10% v/v dialysed foetal bovine serum, L-glutamine, and hygromycin (100 μg ml^−1), 24 hours prior to use. Plasmid DNA was transfected into the cells using Lipofectamine plus according to the manufacturers guidelines (InVitrogen). 48 hours post transfection cells were placed into complete medium supplemented with 500 μg ml^−1 Zeocin™
10-14 days post selection 10 nM Mifepristone (InVitrogen), was added to the culture medium to induce the expression of the receptor. […] Approximately 1×10e7 cells were examined for receptor expression by staining with a rabbit polyclonal antibody, 4a, raised against the N-terminal domain of the histamine H3 receptor, incubated on ice for 60 minutes, followed by two washes in sorting medium. […] Following two further washes with Sorting Medium, cells were filtered through a 50 μm Filcon™ (BD Biosciences) and then analysed on a FACS Vantage SE Flow Cytometer fitted with an Automatic Cell Deposition Unit. […] Positively stained cells were sorted as single cells into 96-well plates, containing Complete Medium containing 500 μg ml^−1 Zeocin™ and allowed to expand before reanalysis for receptor expression via antibody and ligand binding studies.
(ii) Membrane Preparation from Cultured Cells
All steps of the protocol are carried out at 4° C. and with pre-cooled reagents. The cell pellet is resuspended in 10 volumes of buffer A2 containing 50 mM N-2-hydroxyethylpiperazine-N′-2-ethanesulfonic acid (HEPES) (pH 7.40) supplemented with 10e-4M leupeptin (acetyl-leucyl-leucyl-arginal; Sigma L2884), 25 μg/ml bacitracin (Sigma B0125), 1 mM ethylenediamine tetra-acetic acid (EDTA), 1 mM phenylmethylsulfonyl fluoride (PMSF) and 2×10e-6M pepstain A (Sigma). The cells are then homogenised by 2×15 second bursts in a 1 liter glass Waring blender, followed by centrifugation at 500 g for 20 minutes. The supernatant is then spun at 48,000 g for 30 minutes. The pellet is resuspended in 4 volumes of buffer A2 by vortexing for 5 seconds, followed by homogenisation in a Dounce homogeniser (10-15 strokes). At this point the preparation is aliquoted into polypropylene tubes and stored at −70° C.
(II) Histamine H3 Functional Antagonist Assay
The plate is then incubated on a shaker at room temperature for 30 minutes followed by centrifugation for 5 minutes at 1500 rpm. The plate is read between 3 and 6 hours after completion of centrifuge run in a Wallac Microbeta counter on a 1 minute normalised tritium count protocol. Data is analysed using a 4-parameter logistic equation. Basal activity used as minimum i.e. histamine not added to well.

Regarding `N#Cc1ccc(-c2ccc(C(=O)N3CCCN(C4CCC4)CC3)cc2)cc1` [Example 1, 4′-[(4-Cyclobutylhexahydro-1H-1,4-diazepin-1-yl)carbonyl]-4-biphenylcarbonitrile hydrochloride], the Kb at human H1 receptor is greater than 1000 nM; at histamine H3 receptor, less than 0.316 nM.
The like results for `CC(=O)c1ccc(-c2ccc(C(=O)N3CCCN(C4CCC4)CC3)cc2)cc1` [Example 2, 1-{4′-[(4-Cyclobutylhexahydro-1H-1,4-diazepin-1-yl)carbonyl]-4-biphenylyl}ethanone hydrochloride] were, in that order, greater than 1000 nM and less than 0.316 nM.
`O=C(c1ccc(-n2cnnn2)cc1)N1CCCN(C2CCC2)CC1` [Example 7, 1-Cyclobutyl-4-{[4-tetrazol-1-yl)phenyl]carbonyl}hexahydro-1H-1,4-diazepine hydrochloride]: the Kb at human H1 receptor was greater than 1000 nM; on histamine H3 receptor it was no more than 1 nM.
The like results for `O=C(c1ccc(-c2nc(-c3ccc(F)cc3)cs2)cc1)N1CCCN(C2CCC2)CC1` [Example 8, 1-Cyclobutyl-4-({4-[4-(4-fluorophenyl)-1,3-thiazol-2-yl]phenyl}carbonyl) hexahydro-1H-1,4-diazepine hydrochloride] were, in that order, greater than 1000 nM and no more than 1 nM.
Turning to `O=C(c1ccc(N2CCS(=O)(=O)CC2)cc1)N1CCCN(C2CCC2)CC1` [Example 9, 1-Cyclobutyl-4-{[4-(1,1-dioxido-4-thiomorpholinyl)phenyl]carbonyl}hexahydro-1H-1,4-diazepine hydrochloride], the Kb on human H1 receptor was greater than 1000 nM; on histamine H3 receptor it was no more than 1 nM.
For the compound `CC(C)N1CCCN(C(=O)c2ccc(OC3CCOCC3)cc2)CC1` [Example 10, 1-(Isopropyl)-4-{[4-(tetrahydro-2H-pyran-4-yloxy)phenyl]carbonyl}hexahydro-1H-1,4-diazepine hydrochloride], the Kb at human H1 receptor is greater than 1000 nM.
Turning to `O=C(c1ccc(-c2ccc(C(F)(F)F)nc2)cc1)N1CCCN(C2CCC2)CC1` [Example 11, 1-Cyclobutyl-4-({4-[6-(trifluoromethyl)-3-pyridinyl]phenyl}carbonyl)hexahydro-1H-1,4-diazepine hydrochloride], the Kb on human H1 receptor is greater than 1000 nM; on histamine H3 receptor it was less than 0.316 nM.
Consider `N#Cc1ccc(-c2ccc(C(=O)N3CCCN(C4CCC4)CC3)cc2)nc1` [Example 12, 6-{4-[(4-Cyclobutylhexahydro-1H-1,4-diazepin-1-yl)carbonyl]phenyl}-3-cyanopyridine hydrochloride], for which the Kb on human H1 receptor was greater than 1000 nM; at histamine H3 receptor, less than 0.316 nM.
As to `CNC(=O)c1ccc(-c2ccc(C(=O)N3CCCN(C4CCC4)CC3)cc2)cn1` [Example 13, 5-{4-[(4-Cyclobutylhexahydro-1H-1,4-diazepin-1-yl)carbonyl]phenyl}-N-methyl-2-pyridinecarboxamide hydrochloride], the Kb on human H1 receptor was greater than 1000 nM; at histamine H3 receptor, no more than 1 nM.
In the case of `N#Cc1ccc(-c2ccc(C(=O)N3CCCN(C4CCC4)CC3)cc2)cn1` [Example 14, 5-{4-[(4-Cyclobutylhexahydro-1H-1,4-diazepin-1-yl)carbonyl]phenyl}-2-cyanopyridine hydrochloride], the Kb at human H1 receptor was greater than 1000 nM; on histamine H3 receptor, no more than 1 nM.
Consider `CC(C)N1CCCN(C(=O)c2ccc(-c3ccc(C#N)nc3)cc2)CC1` [Example 15, 5-(4-{[4-(1-Isopropyl)hexahydro-1H-1,4-diazepin-1-yl]carbonyl}phenyl)-2-cyanopyridine hydrochloride], for which the Kb at human H1 receptor was greater than 1000 nM.
For the compound `CNC(=O)c1ccc(-c2ccc(C(=O)N3CCCN(C(C)C)CC3)cc2)cn1` [Example 16, N-Methyl-5-(4-{[4-(1-isopropyl)hexahydro-1H-1,4-diazepin-1-yl]carbonyl}phenyl)-2-pyridinecarboxamide hydrochloride], the Kb at human H1 receptor is greater than 1000 nM; on histamine H3 receptor, no more than 1 nM.
The like results for `O=C(c1ccc(-c2ccc(C(F)(F)F)nn2)cc1)N1CCCN(C2CCC2)CC1` [Example 22, 1-Cyclobutyl-4-({4-[6-(trifluoromethyl)-3-pyridazinyl]phenyl}carbonyl)hexahydro-1H-1,4-diazepine hydrochloride] were, in that order, greater than 1000 nM and no more than 1 nM.
The like results for `O=C(c1ccc(-c2cnc(C(F)(F)F)nc2)cc1)N1CCCN(C2CCC2)CC1` [Example 23, 1-Cyclobutyl-4-({4-[2-(trifluoromethyl)-5-pyrimidinyl]phenyl}carbonyl)hexahydro-1H-1,4-diazepine hydrochloride] were, in that order, greater than 1000 nM and no more than 1 nM.
For `O=C(c1ccc(-c2ncco2)cc1)N1CCCN(C2CCC2)CC1` [Example 56, 1-Cyclobutyl-4-{[4-(1,3-oxazol-2-yl)phenyl]carbonyl}hexahydro-1H-1,4-diazepine hydrochloride], on histamine H3 receptor, the Kb is no more than 1 nM.
Same read-out and setting: to `Cc1noc(-c2ccc(C(=O)N3CCCN(C4CCC4)CC3)cc2)n1` [Example 58, 1-Cyclobutyl-4-{[4-(3-methyl-1,2,4-oxadiazol-5-yl)phenyl]carbonyl}hexahydro-4H-1,4-diazepine hydrochloride] belongs less than 0.316 nM.
